pEC50: −log10 of the molar value. Values belong to the compound of their own block, whether it stands above or below them.
Legend:
[1] = target: T1, Extracellular calcium-sensing receptor (Homo sapiens, UniProt P41180); test: Agonist activity at human CaSR expresssed in HEK293 cells in presence of glucose by Fluo4NW dye based FLIPR assay; type: functional, cell-based; details: read-out: EC50
T1 sequence (P41180 whole entry): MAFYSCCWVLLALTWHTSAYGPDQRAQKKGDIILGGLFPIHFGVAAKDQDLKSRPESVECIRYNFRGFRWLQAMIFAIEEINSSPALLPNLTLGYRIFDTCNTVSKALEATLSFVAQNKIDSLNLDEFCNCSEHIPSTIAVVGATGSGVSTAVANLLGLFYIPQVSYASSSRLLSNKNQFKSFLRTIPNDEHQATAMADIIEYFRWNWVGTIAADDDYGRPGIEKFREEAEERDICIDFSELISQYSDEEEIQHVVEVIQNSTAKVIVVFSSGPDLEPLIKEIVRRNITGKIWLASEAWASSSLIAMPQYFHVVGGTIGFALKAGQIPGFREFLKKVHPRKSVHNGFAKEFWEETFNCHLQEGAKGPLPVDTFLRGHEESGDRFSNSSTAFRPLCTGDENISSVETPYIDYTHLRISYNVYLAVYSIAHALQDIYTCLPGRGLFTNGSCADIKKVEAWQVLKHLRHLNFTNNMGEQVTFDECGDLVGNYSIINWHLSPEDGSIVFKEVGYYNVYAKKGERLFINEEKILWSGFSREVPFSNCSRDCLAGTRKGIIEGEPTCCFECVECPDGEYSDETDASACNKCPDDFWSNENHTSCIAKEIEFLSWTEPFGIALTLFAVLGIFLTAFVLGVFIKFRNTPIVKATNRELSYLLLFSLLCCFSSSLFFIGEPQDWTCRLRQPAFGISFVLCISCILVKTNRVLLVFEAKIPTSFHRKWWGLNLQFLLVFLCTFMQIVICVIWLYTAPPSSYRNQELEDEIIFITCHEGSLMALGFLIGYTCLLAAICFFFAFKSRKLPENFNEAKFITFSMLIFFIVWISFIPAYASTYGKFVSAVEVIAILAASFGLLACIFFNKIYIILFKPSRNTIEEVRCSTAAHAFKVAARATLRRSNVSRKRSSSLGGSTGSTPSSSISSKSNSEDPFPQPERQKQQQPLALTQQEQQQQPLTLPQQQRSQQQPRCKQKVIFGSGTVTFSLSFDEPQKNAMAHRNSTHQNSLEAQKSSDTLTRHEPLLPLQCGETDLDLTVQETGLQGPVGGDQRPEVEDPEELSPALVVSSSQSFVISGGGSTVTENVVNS

[2] = target: T2, Voltage-gated inwardly rectifying potassium channel KCNH2 (Homo sapiens, UniProt Q12809); test: (§1) Inhibition of hERG at 1 uM relative to control; type: toxicity; details: 1 µM
[3] = target: T2, Voltage-gated inwardly rectifying potassium channel KCNH2; test: (§2) Inhibition of hERG at 10 uM relative to control; type: toxicity; details: 10 µM
[4] = Microsomal stability in human liver microsomes assessed as parent compound remaining at 1 uM measured upto 30 mins in presence of NADPH by LC-MS/MS analysis; type: ADME, Microsome; details: for Stability: microsomes, 0.5 h, 1 µM; for remaining at 0.5 h, 1 µM: liver microsomes, read-out: Stability
[5] = target: T3, CYP2D6 (Homo sapiens, UniProt P10635); test: Inhibition of CYP2D6 in human liver microsomes at 1 uM preincubated for 5 mins followed by NADPH addition by LC-MS/MS analysis relative to control; type: ADME, Microsome
[6] = target: T3, CYP2D6; test: Inhibition of CYP2D6 in human liver microsomes at 10 uM preincubated for 5 mins followed by NADPH addition by LC-MS/MS analysis relative to control; type: ADME, Microsome
[7] = Microsomal stability in rat liver microsomes assessed as parent compound remaining at 1 uM measured upto 30 mins in presence of NADPH by LC-MS/MS analysis; type: ADME, Microsome; details: read-out: Stability
[8] = system: Rattus norvegicus; test: Effect on parathyroid hormone in po dosed overnight fasted Sprague-Dawley rat assessed as reduction in plasma PTH level measured after 0.5 to 6 hrs of post treatment by sandwich ELISA analysis; type: functional, organism-based; details: dose 3-30 mg/kg, time 0.5-6 hrs
[9] = target: T4, hERG (Homo sapiens, UniProt Q12809); test: as §1; type: toxicity
[10] = target: T4, hERG; test: as §2; type: toxicity
[11] = AUClast in Sprague-Dawley rat at 0.3 mg/kg, iv measured upto 24 hrs by LC-MS/MS analysis; type: ADME, organism-based; design: dose 0.3 mg/kg, time < 24 hrs, route iv; details: in vivo
[12] = Half life in Sprague-Dawley rat at 0.3 mg/kg, iv measured upto 24 hrs by LC-MS/MS analysis; details: in vivo
[13] = Clearance in Sprague-Dawley rat at 0.3 mg/kg, iv measured upto 24 hrs by LC-MS/MS analysis; details: in vivo
[14] = Volume of distribution at steady state in Sprague-Dawley rat at 0.3 mg/kg, iv measured upto 24 hrs by LC-MS/MS analysis; details: in vivo
[15] = AUClast in Sprague-Dawley rat at 1 mg/kg, po measured upto 24 hrs by LC-MS/MS analysis; type: ADME, organism-based; design: dose 1 mg/kg, time < 24 hrs, route po; details: in vivo
[16] = Half life in Sprague-Dawley rat at 1 mg/kg, po measured upto 24 hrs by LC-MS/MS analysis; details: in vivo
[17] = in vivo; details: Sprague-Dawley, rat, iv, 0.3 mg/kg
Description: Cmax in Sprague-Dawley rat at 0.3 mg/kg, iv measured upto 24 hrs by LC-MS/MS analysis

[18] = in vivo; details: Sprague-Dawley, rat, po, 1 mg/kg
Description: Tmax in Sprague-Dawley rat at 1 mg/kg, po measured upto 24 hrs by LC-MS/MS analysis

[19] = in vivo; details: Sprague-Dawley, rat, po, 1 mg/kg; remark: listed apart in the source
Description: Cmax in Sprague-Dawley rat at 1 mg/kg, po measured upto 24 hrs by LC-MS/MS analysis

[20] = Tmax in Sprague-Dawley rat at 1 mg/kg, iv measured upto 24 hrs by LC-MS/MS analysis; type: ADME, organism-based; details: in vivo
[21] = AUClast in Sprague-Dawley rat at 1 mg/kg, iv measured upto 24 hrs by LC-MS/MS analysis; type: ADME, organism-based; design: dose 1 mg/kg, time < 24 hrs, route iv; details: in vivo
[22] = Half life in Sprague-Dawley rat at 1 mg/kg, iv measured upto 24 hrs by LC-MS/MS analysis; type: ADME, organism-based; details: in vivo
[23] = Clearance in Sprague-Dawley rat at 1 mg/kg, iv measured upto 24 hrs by LC-MS/MS analysis; type: ADME, organism-based; details: in vivo
[24] = Volume of distribution at steady state in Sprague-Dawley rat at 1 mg/kg, iv measured upto 24 hrs by LC-MS/MS analysis; type: ADME, organism-based; details: in vivo, read-out: Vdss
[25] = Tmax in Sprague-Dawley rat at 10 mg/kg, po measured upto 24 hrs by LC-MS/MS analysis; type: ADME, organism-based; details: in vivo
[26] = Cmax in Sprague-Dawley rat at 10 mg/kg, po measured upto 24 hrs by LC-MS/MS analysis; type: ADME, organism-based; design: time < 24 hrs, dose 10 mg/kg, route po; details: in vivo
[27] = AUClast in Sprague-Dawley rat at 10 mg/kg, po measured upto 24 hrs by LC-MS/MS analysis; type: ADME, organism-based; design: dose 10 mg/kg, time < 24 hrs, route po; details: in vivo
[28] = Oral bioavailability in Sprague-Dawley rat at 10 mg/kg measured upto 24 hrs by LC-MS/MS analysis; type: ADME, organism-based; details: in vivo
[29] = Cmax in Sprague-Dawley rat at 1 mg/kg, iv measured upto 24 hrs by LC-MS/MS analysis; type: ADME, organism-based; design: dose 1 mg/kg, time < 24 hrs, route iv; details: in vivo
[30] = Effect on parathyroid hormone in overnight fasted Sprague-Dawley rat assessed as reduction in plasma PTH level at 10 mg/kg, po measured after 0.5 hrs of post treatment by sandwich ELISA analysis; type: functional; design: scale not given: the % may be the effect or the level left
[31] = Effect on parathyroid hormone in overnight fasted Sprague-Dawley rat assessed as reduction in plasma PTH level at 10 mg/kg, po measured after 2 hrs of post treatment by sandwich ELISA analysis; type: functional; design: scale not given: the % may be the effect or the level left
[32] = Effect on parathyroid hormone in overnight fasted Sprague-Dawley rat assessed as reduction in plasma PTH level at 10 mg/kg, po measured after 4 hrs of post treatment by sandwich ELISA analysis (reference value: 18%); type: functional; design: scale not given: the % may be the effect or the level left
[33] = Effect on parathyroid hormone in overnight fasted Sprague-Dawley rat assessed as reduction in plasma PTH level at 30 mg/kg, po measured after 4 hrs of post treatment by sandwich ELISA analysis; type: functional; design: scale not given: the % may be the effect or the level left
[34] = Effect on parathyroid hormone in overnight fasted Sprague-Dawley rat assessed as reduction in plasma PTH level at 30 mg/kg, po measured after 2 hrs of post treatment by sandwich ELISA analysis; type: functional; design: scale not given: the % may be the effect or the level left
[35] = Effect on parathyroid hormone in overnight fasted Sprague-Dawley rat plasma assessed as reduction in PTH level at 30 mg/kg, po measured after 0.5 hrs of post treatment by sandwich ELISA analysis; type: functional; design: scale not given: the % may be the effect or the level left
[36] = Effect on parathyroid hormone in overnight fasted Sprague-Dawley rat assessed as reduction in plasma PTH level at 10 mg/kg, po measured after 1 hrs of post treatment by sandwich ELISA analysis; type: functional; design: scale not given: the % may be the effect or the level left
[37] = Effect on parathyroid hormone in overnight fasted Sprague-Dawley rat assessed as reduction in plasma PTH level at 30 mg/kg, po measured after 1 hrs of post treatment by sandwich ELISA analysis; type: functional; design: scale not given: the % may be the effect or the level left

T3 sequence (P10635 whole entry): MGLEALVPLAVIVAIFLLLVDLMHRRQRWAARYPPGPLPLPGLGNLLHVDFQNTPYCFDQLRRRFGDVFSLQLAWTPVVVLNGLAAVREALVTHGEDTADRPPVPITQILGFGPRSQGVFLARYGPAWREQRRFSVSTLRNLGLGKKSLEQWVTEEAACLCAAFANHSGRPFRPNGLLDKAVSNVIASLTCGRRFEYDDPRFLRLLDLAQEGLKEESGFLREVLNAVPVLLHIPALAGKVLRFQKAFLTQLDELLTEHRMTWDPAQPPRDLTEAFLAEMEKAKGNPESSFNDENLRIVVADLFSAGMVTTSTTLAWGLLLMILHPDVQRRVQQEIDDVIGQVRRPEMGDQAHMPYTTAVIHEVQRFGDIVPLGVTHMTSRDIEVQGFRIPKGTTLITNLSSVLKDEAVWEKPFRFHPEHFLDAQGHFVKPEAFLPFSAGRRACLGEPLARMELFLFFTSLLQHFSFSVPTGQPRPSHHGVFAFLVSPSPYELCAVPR
T2 sequence (Q12809 whole entry): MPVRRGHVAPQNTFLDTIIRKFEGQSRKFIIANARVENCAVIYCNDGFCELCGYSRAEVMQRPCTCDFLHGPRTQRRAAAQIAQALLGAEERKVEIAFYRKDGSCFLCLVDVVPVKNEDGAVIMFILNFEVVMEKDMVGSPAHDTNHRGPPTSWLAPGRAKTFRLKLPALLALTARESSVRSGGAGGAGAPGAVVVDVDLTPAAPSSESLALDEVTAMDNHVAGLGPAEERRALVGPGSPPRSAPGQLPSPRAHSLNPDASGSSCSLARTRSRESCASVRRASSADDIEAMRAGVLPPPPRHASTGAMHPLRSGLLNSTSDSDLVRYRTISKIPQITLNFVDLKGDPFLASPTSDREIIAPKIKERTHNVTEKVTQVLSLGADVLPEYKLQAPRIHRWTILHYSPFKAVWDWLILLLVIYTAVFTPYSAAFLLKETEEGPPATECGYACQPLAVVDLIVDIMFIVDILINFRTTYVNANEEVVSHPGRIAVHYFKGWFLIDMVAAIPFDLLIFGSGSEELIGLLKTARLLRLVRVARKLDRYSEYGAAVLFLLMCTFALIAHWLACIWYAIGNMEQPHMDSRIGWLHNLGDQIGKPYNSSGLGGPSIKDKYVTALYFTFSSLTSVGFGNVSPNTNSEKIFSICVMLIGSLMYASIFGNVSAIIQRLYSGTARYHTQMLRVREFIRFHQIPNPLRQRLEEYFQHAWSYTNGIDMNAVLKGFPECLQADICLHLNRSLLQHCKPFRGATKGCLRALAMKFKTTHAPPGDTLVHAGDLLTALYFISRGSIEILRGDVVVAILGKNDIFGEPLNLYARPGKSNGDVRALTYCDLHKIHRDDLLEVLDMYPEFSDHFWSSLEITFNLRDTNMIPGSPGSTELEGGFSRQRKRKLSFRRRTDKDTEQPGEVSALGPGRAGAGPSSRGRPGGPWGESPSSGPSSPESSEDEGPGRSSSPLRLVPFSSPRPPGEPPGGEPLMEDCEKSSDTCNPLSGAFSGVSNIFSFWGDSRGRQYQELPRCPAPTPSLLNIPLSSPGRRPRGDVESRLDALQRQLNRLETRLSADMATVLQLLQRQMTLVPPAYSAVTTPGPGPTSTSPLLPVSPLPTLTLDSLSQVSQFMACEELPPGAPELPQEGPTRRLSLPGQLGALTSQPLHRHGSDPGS
T4 sequence (Q12809 whole entry): as above

Compound: Cc1c(C(=O)O)cccc1N1CC(CN[C@H](C)c2cccc3ccccc23)Oc2ccccc21.Cl (mixture of isomers; form 1)
- pEC50 [1]: 7.32
- inhibition at 1 µM [5]: 26%
- inhibition at 10 µM [6]: 43%
- inhibition (INH) [2]: -8%
- inhibition (INH) [3]: -5%
- remaining at 0.5 h, 1 µM [7]: 45%
- Stability [4]: 40%

Compound: Cc1ccc(N2CC(CN[C@H](C)c3cccc4ccccc34)Oc3ccccc32)cc1C(=O)O (some centres not stated)
- Activity [8]: Dose-Dependent Effect

Compound: Cc1ccc([C@@H]2C[C@@H](CN[C@H](C)c3cccc4ccccc34)Oc3ccccc32)cc1C(=O)O
- pEC50 [1]: 7.47
- inhibition at 1 µM [5]: 8%
- inhibition at 10 µM [6]: 41%
- inhibition at 1 µM [9]: 4%
- inhibition at 10 µM [10]: -1%
- remaining at 0.5 h, 1 µM [7]: 47%
- remaining at 0.5 h, 1 µM [4]: 74%

Compound: C[C@@H](NCC1CN(c2ccc(C(=O)O)cc2)c2ccccc2O1)c1cccc2ccccc12 (some centres not stated)
- pEC50 [1]: 7.19
- inhibition at 1 µM [5]: 65%
- inhibition at 10 µM [6]: 65%
- inhibition at 1 µM [9]: 5%
- inhibition at 10 µM [10]: -43%
- remaining at 0.5 h, 1 µM [7]: 28%
- remaining at 0.5 h, 1 µM [4]: 34%

Second part, led by results:

- pEC50 [1]: 7.31
- Stability [4]: 10%
Compound: Cc1c(C(=O)O)cccc1N1CC(CN[C@H](C)c2cccc3ccccc23)Oc2ccccc21.Cl (mixture of isomers; form 2)
- inhibition (INH) [2]: -28%
- inhibition (INH) [3]: -16%

- remaining at 0.5 h, 1 µM [7]: 34%
- remaining at 0.5 h, 1 µM [4]: 68%
- AUC(0-t) at 24 h [11]: 8.03 µM·h
- half-life at 24 h [12]: 7.32 h
- clearance at 24 h [13]: 0.1 L/h/kg
- Vd at 24 h [14]: 0.591 L/kg
- AUC(0-t) at 24 h [15]: 23 µM·h
- half-life at 24 h [16]: 6.13 h
- Cmax at 24 h [17]: 0.27 µM
- Tmax at 24 h [18]: 0.81 h
- Cmax at 24 h [19]: 5.84 µM
Compound: C[C@@H](N[C@H]1CCN(c2ccc(CC(=O)O)cc2)C1)c1cccc2ccccc12 [EVOCALCET]

- pEC50 [1]: 8.15
- inhibition at 1 µM [5]: 44%
- inhibition at 10 µM [6]: 47%
- remaining at 0.5 h, 1 µM [7]: 55%
- remaining at 0.5 h, 1 µM [4]: 45%
- Tmax [20]: 4.8 min
- AUC(0-t) at 24 h [21]: 7 µM·h
- half-life [22]: 3 h
- clearance [23]: 0.3 L/h/kg
- Vd [24]: 1 L/kg
- Tmax [25]: 3 min
- Cmax [26]: 13 µM
- AUC(0-t) at 24 h [27]: 55 µM·h
- bioavailability [28]: 79%
- Cmax [29]: 5 µM
Compound: Cc1ccc(N2CC(CN[C@H](C)c3cccc4ccccc34)Oc3ccccc32)cc1C(=O)O.Cl (some centres not stated)
- inhibition at 1 µM [9]: 7%
- inhibition at 10 µM [10]: 14%
- Activity [30]: 100%
- Activity [31]: 100%
- Activity [32]: 66%
- Activity [33]: 92%
- Activity [34]: 100%
- Activity [35]: 100%
- Activity [36]: 86%
- Activity [37]: 97%

— ChEMBL document CHEMBL5346964, “Discovery of LNP1892: A Precision Calcimimetic for the Treatment of Secondary Hyperparathyroidism” (J Med Chem, 2023)
